Results taken from the supplement of paper PMC10307832.

Experiments:
Test in all cases: relative viability (nuclei count vs DMSO), 5 days (fraction); higher = more cells survive
BX 795 + OSI-027 = compound: O=C(NCCCNc1nc(Nc2cccc(NC(=O)N3CCCC3)c2)ncc1I)c1cccs1 [BX 795] + COc1cccc2cc(-c3nc([C@H]4CC[C@H](C(=O)O)CC4)n4ncnc(N)c34)[nH]c12 [OSI-027] (partner 0.5 µM)
Summary of the method: (§1)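 Relative viability was taken as the ratio of nuclei in treated wells to nuclei in vehicle wells. Lung cancer cell lines in 1536-well plates received compounds by pin tool one day after seeding, either one drug alone or a fixed anchor-drug dose plus five library-drug doses (not always all listed) in √10 steps. Nuclei were counted on 4× images after 5 days of treatment, and values are medians of duplicate plates.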

BX 795 + Dasatinib = compound: O=C(NCCCNc1nc(Nc2cccc(NC(=O)N3CCCC3)c2)ncc1I)c1cccs1 [BX 795] + Cc1nc(Nc2ncc(C(=O)Nc3c(C)cccc3Cl)s2)cc(N2CCN(CCO)CC2)n1 [Dasatinib] (partner 0.075 µM)
Summary of the method: as §1

BX 795 + Trametinib = compound: O=C(NCCCNc1nc(Nc2cccc(NC(=O)N3CCCC3)c2)ncc1I)c1cccs1 [BX 795] + CC(=O)Nc1cccc(-n2c(=O)n(C3CC3)c(=O)c3c(Nc4ccc(I)cc4F)n(C)c(=O)c(C)c32)c1 [Trametinib] (partner 0.02 µM)
Summary of the method: as §1

BX 795 + Phenformin = compound: O=C(NCCCNc1nc(Nc2cccc(NC(=O)N3CCCC3)c2)ncc1I)c1cccs1 [BX 795] + N=C(N)NC(=N)NCCc1ccccc1 [Phenformin] (partner 250 µM)
Summary of the method: as §1

BX 795 + Luminespib = compound: O=C(NCCCNc1nc(Nc2cccc(NC(=O)N3CCCC3)c2)ncc1I)c1cccs1 [BX 795] + CCNC(=O)c1noc(-c2cc(C(C)C)c(O)cc2O)c1-c1ccc(CN2CCOCC2)cc1 [Luminespib] (partner 0.01 µM)
Summary of the method: as §1

Cell Line	relative viability (BX 795 + OSI-027; first compound 0.04 µM)	relative viability (BX 795 + OSI-027; first compound 0.1265 µM)	relative viability (BX 795 + OSI-027; first compound 0.4 µM)	relative viability (BX 795 + OSI-027; first compound 1.265 µM)	relative viability (BX 795 + Dasatinib; first compound 0.04 µM)	relative viability (BX 795 + Dasatinib; first compound 0.1265 µM)	relative viability (BX 795 + Dasatinib; first compound 0.4 µM)	relative viability (BX 795 + Dasatinib; first compound 1.265 µM)	relative viability (BX 795 + Trametinib; first compound 0.04 µM)	relative viability (BX 795 + Trametinib; first compound 0.1265 µM)	relative viability (BX 795 + Trametinib; first compound 0.4 µM)	relative viability (BX 795 + Trametinib; first compound 1.265 µM)	relative viability (BX 795 + Phenformin; first compound 0.04 µM)	relative viability (BX 795 + Phenformin; first compound 0.1265 µM)	relative viability (BX 795 + Phenformin; first compound 0.4 µM)	relative viability (BX 795 + Phenformin; first compound 1.265 µM)	relative viability (BX 795 + Luminespib; first compound 0.04 µM)	relative viability (BX 795 + Luminespib; first compound 0.1265 µM)	relative viability (BX 795 + Luminespib; first compound 0.4 µM)	relative viability (BX 795 + Luminespib; first compound 1.265 µM)
HCC-366	1.08	0.881	0.644	0.444	0.757	0.73	0.498	0.631	0.391	0.338	0.421	0.32	0.622	0.629	0.602	0.583	–	–	–	–
HCC-827	0.839	0.81	0.933	0.763	0.334	0.375	0.307	0.414	0.54	0.539	0.575	0.551	0.448	0.372	0.414	0.387	0.746	0.657	0.823	0.644
HOP-62	0.833	0.917	0.84	0.768	0.659	0.797	0.668	0.576	0.374	0.369	0.365	0.317	0.711	0.744	0.789	0.667	0.81	1.01	1.08	1.02
LC-2-ad	0.841	0.767	0.867	0.658	0.416	0.497	0.391	0.285	0.886	0.95	0.646	0.662	0.585	0.5	0.48	0.41	1.16	1.03	0.938	0.662
LCLC-97TM1	0.462	0.604	0.673	0.332	0.719	0.888	0.764	0.76	0.203	0.19	0.179	0.166	0.495	0.444	0.457	0.348	0.939	0.657	0.774	0.456
LCLC-103H	0.476	0.528	0.488	0.501	0.55	0.481	0.553	0.412	0.578	0.681	0.712	0.651	0.301	0.327	0.355	0.298	0.941	0.84	1.06	0.737
LK-2	0.248	0.194	0.186	0.2	0.35	0.201	0.291	0.304	0.757	0.837	0.583	0.629	0.501	0.485	0.503	0.444	0.186	0.174	0.175	0.189
LOU-NH91	0.794	0.75	0.735	0.724	0.63	0.662	0.583	0.564	0.724	0.788	0.763	0.734	0.861	0.713	0.658	0.697	0.372	0.3	0.303	0.307
LU99A	0.306	0.296	0.287	0.257	0.78	0.571	0.472	0.364	0.558	0.484	0.41	0.278	0.875	0.741	0.915	0.53	0.288	0.278	0.226	0.294
LXF-289	0.793	0.898	0.959	0.681	0.209	0.28	0.185	0.15	0.523	0.67	0.725	0.631	0.464	0.529	0.582	0.467	0.707	0.693	0.828	0.51
NCI-H23	0.6	0.701	0.621	0.506	0.871	0.8	0.507	0.884	0.341	0.338	0.368	0.312	0.803	0.825	0.794	0.782	–	0.207	0.216	0.211
NCI-H322M	0.614	0.587	0.414	0.559	0.256	0.254	0.295	0.28	0.5	0.487	0.6	0.562	0.858	0.796	0.951	0.659	0.589	0.915	0.266	1.03
NCI-H358	0.761	0.796	0.666	0.513	0.155	0.165	0.154	0.154	0.158	0.124	0.111	0.114	0.296	0.319	0.257	0.117	0.471	0.325	0.635	0.218
NCI-H441	0.731	0.57	0.891	0.399	0.695	0.7	0.587	0.459	0.545	0.4	0.596	0.335	0.986	0.831	0.983	0.531	0.323	0.297	0.333	0.278
NCI-H460	0.633	0.561	0.543	0.224	0.491	0.474	0.385	0.385	0.265	0.138	0.13	0.12	0.5	0.609	0.415	0.372	0.0385	0.0327	0.0422	0.0269
NCI-H1563	0.782	0.749	0.821	0.67	0.476	0.429	0.439	0.405	–	–	–	–	0.679	0.641	0.744	0.567	0.593	0.472	0.47	0.447
